Experimental data reported in ChEMBL document CHEMBL1201862, “PubChem BioAssay data set” (2004).
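In this assay, cells in 96-well plates receive the compound at five concentrations for 48 hours. Endpoints are linearly interpolated between the surrounding concentrations. GI50 is the concentration that inhibits growth by half.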 Calls of active or inactive are those of the source. Cut-off read from the data, not from the text of the source: active = GI50 up to about 1.1 µM and inactive = higher.

Experiments:
Assay in all cases: NCI tumour cell line growth inhibition, 48 h
786-0 = system: 786-0
A549 = system: A549
ACHN = system: ACHN
CAKI-1 = system: CAKI-1
CCRF-CEM = system: CCRF-CEM
COLO 205 = system: COLO 205
DLD-1 = system: DLD-1
DMS-114 = system: DMS-114
DMS-273 = system: DMS-273
EKVX = system: EKVX
HCC 2998 = system: HCC 2998
HCT-116 = system: HCT-116
HCT-15 = system: HCT-15
HL-60 = system: HL-60
HOP-18 = system: HOP-18
HOP-62 = system: HOP-62
HT-29 = system: HT-29
IGROV-1 = system: IGROV-1
K562 = system: K562
KM-20L2 = system: KM-20L2
KM12 = system: KM12
LOX IMVI = system: LOX IMVI
LXFL 529 = system: LXFL 529
M14 = system: M14
M19-MEL = system: M19-MEL
MOLT-4 = system: MOLT-4
Malme-3M = system: Malme-3M
NCI-H226 = system: NCI-H226
NCI-H23 = system: NCI-H23
NCI-H460 = system: NCI-H460
NCI-H522 = system: NCI-H522
OVCAR-3 = system: OVCAR-3
OVCAR-4 = system: OVCAR-4
OVCAR-5 = system: OVCAR-5
OVCAR-8 = system: OVCAR-8
RPMI-8226 = system: RPMI-8226
RXF 393 = system: RXF 393
SF-268 = system: SF-268
SF-295 = system: SF-295
SF-539 = system: SF-539
SK-MEL-28 = system: SK-MEL-28
SK-MEL-2 = system: SK-MEL-2
SK-MEL-5 = system: SK-MEL-5
SK-OV-3 = system: SK-OV-3
SN12C = system: SN12C
SNB-19 = system: SNB-19
SNB-75 = system: SNB-75
SNB-78 = system: SNB-78
SW-620 = system: SW-620
TK-10 = system: TK-10
U-251 = system: U-251
UACC-257 = system: UACC-257
UACC-62 = system: UACC-62
UO-31 = system: UO-31
XF498 = system: XF498

## COC(=O)/C(C#N)=C1\CCC(OC)N1C (stereo not given)
786-0
  GI50: > 100 µM (inactive)
A549
  GI50: > 100 µM (inactive)
ACHN
  GI50: > 100 µM (inactive)
CAKI-1
  GI50: > 100 µM (inactive)
CCRF-CEM
  GI50: > 100 µM (inactive)
COLO 205
  GI50: > 100 µM (inactive)
DLD-1
  GI50: > 100 µM (inactive)
DMS-114
  GI50: > 100 µM (inactive)
DMS-273
  GI50: > 100 µM (inactive)
EKVX
  GI50: > 100 µM (inactive)
HCC 2998
  GI50: > 100 µM (inactive)
HCT-116
  GI50: > 100 µM (inactive)
HCT-15
  GI50: > 100 µM
HL-60
  GI50: > 100 µM (inactive)
HOP-18
  GI50: > 100 µM (inactive)
HOP-62
  GI50: > 100 µM (inactive)
HT-29
  GI50: > 100 µM (inactive)
IGROV-1
  GI50: > 100 µM (inactive)
K562
  GI50: > 100 µM (inactive)
KM-20L2
  GI50: > 100 µM (inactive)
KM12
  GI50: > 100 µM (inactive)
LOX IMVI
  GI50: > 100 µM (inactive)
LXFL 529
  GI50: > 100 µM (inactive)
M14
  GI50: > 100 µM (inactive)
M19-MEL
  GI50: > 100 µM (inactive)
MOLT-4
  GI50: > 100 µM (inactive)
Malme-3M
  GI50: > 100 µM (inactive)
NCI-H226
  GI50: > 100 µM (inactive)
NCI-H23
  GI50: > 100 µM (inactive)
NCI-H460
  GI50: > 100 µM (inactive)
NCI-H522
  GI50: > 100 µM (inactive)
OVCAR-3
  GI50: > 100 µM (inactive)
OVCAR-4
  GI50: > 100 µM (inactive)
OVCAR-5
  GI50: > 100 µM (inactive)
OVCAR-8
  GI50: > 100 µM (inactive)
RPMI-8226
  GI50: > 100 µM (inactive)
RXF 393
  GI50: > 100 µM (inactive)
SF-268
  GI50: > 100 µM (inactive)
SF-295
  GI50: > 100 µM (inactive)
SF-539
  GI50: > 100 µM (inactive)
SK-MEL-28
  GI50: > 100 µM (inactive)
SK-MEL-2
  GI50: > 100 µM (inactive)
SK-MEL-5
  GI50: > 100 µM (inactive)
SK-OV-3
  GI50: > 100 µM (inactive)
SN12C
  GI50: > 100 µM (inactive)
SNB-19
  GI50: > 100 µM (inactive)
SNB-75
  GI50: > 100 µM (inactive)
SNB-78
  GI50: > 100 µM (inactive)
SW-620
  GI50: > 100 µM (inactive)
TK-10
  GI50: > 100 µM (inactive)
U-251
  GI50: > 100 µM (inactive)
UACC-257
  GI50: > 100 µM (inactive)
UACC-62
  GI50: > 100 µM (inactive)
UO-31
  GI50: > 100 µM (inactive)
XF498
  GI50: > 100 µM (inactive)
